Common to all, as to assay type: functional
The test system of assay [1] is Mycobacterium avium. The experiment in a line: Antitubercular activity against Mycobacterium avium infected in C57BL/6J mouse assessed as reduction of CFU counts in spleen at 25 mg/kg, po administered one month post-infection five times weekly for 4 months (reference value: 8.9 +/- 0.3 log10CFU).
The test system of assay [2] is Mycobacterium tuberculosis. Nature of the assay: Antimicrobial activity against Mycobacterium tuberculosis.
Assay [3] concerns Mycobacterium avium. The experiment in a line: Antitubercular activity against Mycobacterium avium infected in C57BL/6J mouse assessed as reduction of CFU counts in spleen at 150 mg/kg, sc administered one month post-infection five times weekly for 3 months (reference value: 7.9 +/- 0.7 log10CFU). To be noted: route subcutaneous.
For assay [4], the system named is Mycobacterium avium. The experiment in a line: Antitubercular activity against Mycobacterium avium infected in C57BL/6J mouse assessed as reduction of CFU counts in spleen at 25 mg/kg, po administered one month post-infection five times weekly for 1 month (reference value: 7.4 +/- 1.7 log10CFU).
The test system of assay [5] is Mycobacterium avium. Nature of the assay: Antimicrobial activity against Mycobacterium avium.
Assay [6] has as its system Mycobacterium avium. Nature of the assay: Antitubercular activity against Mycobacterium avium infected in C57BL/6J mouse assessed as reduction of CFU counts in spleen at 200 mg/kg, po administered one month post-infection five times weekly for 2 months (reference value: 9.4 +/- 0.2 log10CFU).
The test system of assay [7] is Mycobacterium avium. Nature of the assay: Antitubercular activity against Mycobacterium avium infected in C57BL/6J mouse assessed as reduction of CFU counts in spleen at 25 mg/kg, po administered one day post-infection five times weekly for 1 month (reference value: 8.0 +/- 0.9 log10CFU).
Assay [8] deals with Mycobacterium avium. The experiment in a line: Antitubercular activity against Mycobacterium avium infected in C57BL/6J mouse assessed as reduction of CFU counts in spleen at 200 mg/kg, po administered one month post-infection five times weekly for 3 months (reference value: 7.9 +/- 0.7 log10CFU).
Assay [9] deals with Mycobacterium avium. The experiment in a line: Antitubercular activity against Mycobacterium avium infected in C57BL/6J mouse assessed as reduction of CFU counts in spleen at 25 mg/kg, po administered one month post-infection five times weekly for 2 months (reference value: 9.4 +/- 0.2 log10CFU).
Assay [10] deals with Mycobacterium avium. The experiment in a line: Antitubercular activity against Mycobacterium avium infected in C57BL/6J mouse assessed as reduction of CFU counts in spleen at 150 mg/kg, sc administered one month post-infection five times weekly for 1 month (reference value: 7.4 +/- 1.7 log10CFU). To be noted: route subcutaneous.
Assay [11] has as its system Mycobacterium avium. The experiment in a line: Antitubercular activity against Mycobacterium avium infected in C57BL/6J mouse assessed as reduction of CFU counts in spleen at 150 mg/kg, sc administered one month post-infection five times weekly for 4 months (reference value: 8.9 +/- 0.3 log10CFU). To be noted: route subcutaneous.
Assay [12] relates to Mycobacterium avium. Nature of the assay: Antitubercular activity against Mycobacterium avium infected in C57BL/6J mouse assessed as reduction of CFU counts in spleen at 200 mg/kg, po administered one month post-infection five times weekly for 1 month (reference value: 7.4 +/- 1.7 log10CFU).
Assay [13] deals with Mycobacterium avium. Nature of the assay: Antitubercular activity against Mycobacterium avium infected in C57BL/6J mouse assessed as reduction of CFU counts in spleen at 25 mg/kg, po administered one month post-infection five times weekly for 3 months (reference value: 7.9 +/- 0.7 log10CFU).
Assay [14] has as its system Mycobacterium avium. Nature of the assay: Antitubercular activity against Mycobacterium avium infected in C57BL/6J mouse assessed as reduction of CFU counts in spleen at 200 mg/kg, po administered one day post-infection five times weekly for 1 month (reference value: 8.0 +/- 0.9 log10CFU).
Assay [15] concerns Mycobacterium avium. Nature of the assay: Antitubercular activity against Mycobacterium avium infected in C57BL/6J mouse assessed as reduction of CFU counts in spleen at 200 mg/kg, po administered one month post-infection five times weekly for 4 months (reference value: 8.9 +/- 0.3 log10CFU).
Assay [16] concerns Mycobacterium avium. Nature of the assay: Antitubercular activity against Mycobacterium avium infected in C57BL/6J mouse assessed as reduction of CFU counts in spleen at 150 mg/kg, sc administered one month post-infection five times weekly for 2 months (reference value: 9.4 +/- 0.2 log10CFU). To be noted: route subcutaneous.

The record followed here is ChEMBL document CHEMBL1649264, “ATP synthase inhibition of Mycobacterium avium is not bactericidal” (2009).

Converted amounts (≈) assume the structure as drawn. “And” between values parts separate entries of the source, which are not always exact repeats. Identical values can stand only once.

Take `COc1nc2ccc(Br)cc2cc1[C@@H](c1ccccc1)[C@@](O)(CCN(C)C)c1cccc2ccccc12` [BEDAQUILINE]: the log10cfu in the assay with Mycobacterium avium [1] turned out to be 6.5; with Mycobacterium avium [3], 6.6; in the assay with Mycobacterium avium [4], 6.5; in the assay on Mycobacterium avium [6] it was 7.7; in the assay with Mycobacterium avium [7], 5.4. The MIC was 0.06 µg/mL (≈ 0.108 µM) in assay [2]; 0.007 µg/mL and 0.015 µg/mL against Mycobacterium avium [5].
For the compound `NCC[C@H](O)C(=O)N[C@@H]1C[C@H](N)[C@@H](O[C@H]2O[C@H](CN)[C@@H](O)[C@H](O)[C@H]2O)[C@H](O)[C@H]1O[C@H]1O[C@H](CO)[C@@H](O)[C@H](N)[C@H]1O` [AMIKACIN], the log10cfu in the assay on Mycobacterium avium [8] amounted to 7.2; in the assay on Mycobacterium avium [9], 6.7; in the assay with Mycobacterium avium [10], 5.9; in the assay with Mycobacterium avium [11] it was 3.5.
Consider `CC[C@H]1OC(=O)[C@H](C)[C@@H](O[C@H]2C[C@@](C)(OC)[C@@H](O)[C@H](C)O2)[C@H](C)[C@@H](O[C@@H]2O[C@H](C)C[C@H](N(C)C)[C@H]2O)[C@](C)(OC)C[C@@H](C)C(=O)[C@H](C)[C@@H](O)[C@]1(C)O` [CLARITHROMYCIN], for which the log10cfu is 6.6 in the assay on Mycobacterium avium [12]; 6.2 with Mycobacterium avium [13]; 6 in the assay with Mycobacterium avium [14]; 7.2 in the assay on Mycobacterium avium [15]; 5 with Mycobacterium avium [16].

The term MIC denotes the lowest concentration found to suppress growth. Read a high MIC as a need for much substance.
